Test results from patent US20100183504A1, “MULTIMODAL IMAGING PROBES FOR IN VIVO TARGETED AND NON-TARGETED IMAGING AND THERAPEUTICS” (priority 2007, published 2010).

Legend:
Type in all cases: physicochemical
[1] = Gd3+ release from DOTA, colorimetric Arsenazo test; settings: several weeks
Description: The synthesis of Gd-DOTA (i.e., one Gd3+ ion chelated by DOTA) was performed according to a procedure adapted from previous reports (Wang et al. (1992) Inorg. Chem. 31: 1095-1099; Prantner et al. (2003) Mol. Imaging 2: […]). We dissolved p-NH2-Bn-DOTA (2-(4-aminobenzyl)-1,4,7,10-tet-raazacyclododecane-1,4,7,10-tetraacetic acid) in water and add an aqueous solution of GdCl3 (Sigma-Alrich), so as to have a 1:0.98 molar mixture of DOTA/Gd3+ and approximately 0.2 M concentration in DOTA. The solution was heated a few minutes to 80° C. to favor coordination of Gd3+ with the tetraazacy-clododecane ring. The pH of the solution droped below 1. We brought the pH to 3.5-4 by adding aliquots of 7 M NaOH and heat the solution back to 80° C. for a few minutes. At this early stage, heating produces acidification of the solution. […] At that stage, the solution was kept at 80° C. for 3 h. Completion of the Gd^3+ chelation was confirmed by a colorimetric assay using Arsenazo dye (Sigma-Alrich). This colorimetric dye reacts to the presence of unbound or free Gd^3+. The dye natural color is purple, but if it binds to Gd^3+ its color turns to blue. […] The stability of the Gd-DOTA has been studied using the colorimetric Arsenazo test.

[2] = T1/T2 relaxation MRI on Bruker Avance 400 MHz (9.4 T) microimaging system; settings: measured simultaneously with the nanoparticles at 400 MHz; repeated
Description: The concentrations of our solutions are given in terms of silanized nanoparticle concentration and not in terms of Gd^3+ present in solution because the latter is attached to the nanoparticles. At 1 μM concentration, the average distance between nanoparticles is over 100 nm. We determined the concentration of the nanoparticle solution by measuring the UV-vis spectrum. […] We used the following numbers: QD exciton peak at approximately 610 nm, fluorescence emission at approximately 630 nm, full width at half-maximum (fwhm) of 38 nm, extinction coefficient used 620 000 M^−1cm^−1 following published reports (Yu, et al. (2003) Chem. Mater. 15: 2854-2860). […] These latter numbers were computed from the concentrations given by the manufacturer and the OD of citrate-stabilized Au colloids measured directly out of the bottle.
(§1) All MRI experiments were performed on a Bruker Avance 400 MHz (9.4 T) spectrometer equipped with a high-resolution Micro5 microimaging system with a 25 mm RF coil. […] We also obtained quantitative evaluation of the longitudinal relaxation times, T1, by plotting M/Mo versus log(τ), that is, the residual magnetization as a function of the recovery time. T1 values were measured by fitting M(τ)/Mo to an single-exponential growth curve: (M(τ)/Mo)=(1−[…]). Transverse relaxation times were determined by a plot of log-(M/Mo) versus τ. […]

[3] = T1 and T2 relaxation time measurements on Bruker Minispecs at 20 and 60 MHz; settings: 20-100 MHz; comparison line
Source text: After extensive purification from unbound Gd-DOTA, these samples were chemically analyzed by inductively coupled plasma mass spectrometry (ICP-MS) by measuring the total amount of Gd and Cd or Au ions. By assuming bulk parameters of the CdSe or Au lattice and the size of the nanoparticles (using tabulated values linking the size of the QDs to its optical properties, or the claimed size for Au nanocrystals), we deduced the number of Gd per silanized nanoparticle. The number of Gd^3+ […] SiO2-coated nanoparticle varied from 3 to greater than 300 and depends on the size of the initial nanoparticles and the conditions used during the conjugation of Gd-DOTA to the silanized nanoparticles. Notice that the same samples were used for MRI study and ICP-MS analysis.
T1 and T2 relaxation time measurements were performed on Bruker Minispecs operating at 1H resonance frequencies of 20 and 60 MHz. An inversion recovery pulse sequence was employed for T1 relaxation time measurements using a monoexponential fit to the recovery curve. For each experiment, 4 scans were collected with a recycle delay of 15 s. To obtain the recovery curve, 50 evenly spaced points were collected with the first point acquired at 5 ms. […]
(§2) The T2 times were calculated from a monoexponential fit to a spin echo decay curve using a Carr-Purcell-Meiboom-Gill (CPMG) pulse sequence. […]

[4] = Relaxivities summarised over the field strengths investigated or without stated field; settings: three field strengths investigated
Description: T1 and T2 relaxation time measurements were performed on Bruker Minispecs operating at 1H resonance frequencies of 20 and 60 MHz. An inversion recovery pulse sequence was employed for T1 relaxation time measurements using a monoexponential fit to the recovery curve. For each experiment, 4 scans were collected with a recycle delay of 15 s. To obtain the recovery curve, 50 evenly spaced points were collected with the first point acquired at 5 ms. The last time point was collected at 4000 ms for short T1 samples and 10,000 ms for samples with long T1 so that each sample was allowed to fully recover. The receiver gain for each sample was set so that the signal amplitude was approximately 60%.
as §2, §1

Substance: Gd-DOTA
- Gd^3+ release from the DOTA ring [1]: No Gd^3+ release
- r1 Gd^3+ ion relaxivity of unbound Gd-DOTA [2]: 3.7 ± 0.04 mM⁻¹ s⁻¹
- r2 Gd^3+ ion relaxivity of unbound Gd-DOTA [2]: 3.8 ± 0.2 mM⁻¹ s⁻¹
- r1 Gd^3+ ion relaxivity of unbound Gd-DOTA [3]: 3 to 5 mM⁻¹ s⁻¹
- relaxivities of unbound Gd-DOTA [4]: 3 to 12 mM⁻¹ s⁻¹
